Measurements reported in patent publication US6750223B2, “4-Anilino[2,3-b]quinoline derivatives, their preparation processes and pharmaceutical compositions comprising the same” (Kaohsiung Medical University, priority 2002, dated 2004).
Where two headings read alike, the source gives them in different places.

Tests used:
[1] = tested on: leukemia (CCRF-CEM, HL-60 (TB), K-562, MOLT-4, RPMI-8226, and SR); assay: NCI in vitro anticancer screen, leukemia subpanel; type: cell-based; settings: read-out: GI50 Leukemia
[2] = tested on: non-small cell lung cancer (A549/ATCC, EKVX, HOP-62, HOP-92, NCI-H226, NCI-H23, NCI-H322M, NCI-H460, and NCI-H522); assay: NCI in vitro anticancer screen, non-small-cell lung cancer subpanel; type: cell-based, human
[3] = tested on: colon cancer (COLO 205, HCC-2998, HCT-116, HCT-15, HT29, KM12, and SW-620); assay: NCI in vitro anticancer screen, colon cancer subpanel; type: cell-based, human; settings: read-out: GI50 Colon cancer
[4] = tested on: CNS cancer (SF-268, SF-295, SF-539, SNB-19, SNB-75, and U251); assay: NCI in vitro anticancer screen, CNS cancer subpanel; type: cell-based, human; settings: read-out: GI50 CNS cancer
[5] = tested on: melanoma (LOX IMVI, MALME-3M, M14, SK-MEL-2, SK-MEL-28, SK-MEL-5, UACC-62, and UACC-257); assay: NCI in vitro anticancer screen, melanoma subpanel; type: cell-based, human; settings: read-out: GI50 Melanoma
[6] = tested on: ovarian cancer (IGROV1, OVCAR-3, OVCAR-4, OVCAR-5, OVCAR-8, and SK-OV-3); assay: NCI in vitro anticancer screen, ovarian cancer subpanel; type: cell-based, human; settings: read-out: GI50 Ovarian cancer
[7] = tested on: renal cancer (786-0, A498, ACHN, CAKI-1, RXF 393, SN12C, TK-10, and UO-31); assay: NCI in vitro anticancer screen, renal cancer subpanel; type: cell-based, human; settings: read-out: GI50 Renal cancer
[8] = tested on: prostate cancer (PC-3 and DU-145); assay: NCI in vitro anticancer screen, prostate cancer subpanel; type: cell-based, human
[9] = tested on: breast cancer (MCF7, MCF7/ADR-RES, MDA-MB-231/ATCC, HS 578T, MDA-MB-435, MDA-N, and T-47D); assay: NCI in vitro anticancer screen, breast cancer subpanel; type: cell-based, human; settings: read-out: GI50 Breast cancer
[10] = tested on: NCI's full panel of 60 human cancer cell lines; assay: NCI in vitro anticancer screen, full panel mean; type: cell-based
[11] = tested on: A549/ATCC; assay: NCI in vitro anticancer screen, A549/ATCC; type: cell-based, human; settings: non-small-cell lung cancer cell line
[12] = tested on: EKVX; assay: NCI in vitro anticancer screen, EKVX; type: cell-based, human; settings: non-small-cell lung cancer cell line
[13] = tested on: HOP-62; assay: NCI in vitro anticancer screen, HOP-62; type: cell-based, human
[14] = tested on: HOP-92; assay: NCI in vitro anticancer screen, HOP-92; type: cell-based, human
[15] = tested on: NCI-H226; assay: NCI in vitro anticancer screen, NCI-H226; type: cell-based, human; settings: non-small-cell lung cancer cell line
[16] = tested on: NCI-H23; assay: NCI in vitro anticancer screen, NCI-H23; type: cell-based, human; settings: non-small-cell lung cancer cell line
[17] = tested on: NCI-H322M; assay: NCI in vitro anticancer screen, NCI-H322M; type: cell-based, human; settings: non-small-cell lung cancer cell line
[18] = tested on: NCI-H460; assay: NCI in vitro anticancer screen, NCI-H460; type: cell-based, human
[19] = tested on: NCI-H522; assay: NCI in vitro anticancer screen, NCI-H522; type: cell-based, human
[20] = Homo sapiens, subpanel value, concentration causing 50% cell growth inhibition
[21] = Homo sapiens, subpanel value, read-out: GI50 Non-small-cell lung cancer
[22] = Homo sapiens, DU-145, subpanel value, read-out: GI50 Prostate cancer
[23] = Homo sapiens, mean values over all cell lines tested, read-out: GI50 MG_MID
[24] = mean over all cell lines, read-out: mean GI50
[25] = non-small-cell lung cancer cell line

| SMILES | GI50 [1, 20] [nM] | GI50 [2, 21] [nM] | GI50 ([3]; Homo sapiens, subpanel value) [nM] | GI50 ([4]; Homo sapiens, subpanel value) [nM] | GI50 ([5]; Homo sapiens, subpanel value) [nM] | GI50 ([6]; Homo sapiens, subpanel value) [nM] | GI50 ([7]; Homo sapiens, subpanel value) [nM] | GI50 [8, 22] [nM] | GI50 ([9]; Homo sapiens, subpanel value) [nM] | GI50 [10, 23] [nM] | GI50 [10, 24] [nM] | melting point [°C] | other results |
| --- | --- | --- | --- | --- | --- | --- | --- | --- | --- | --- | --- | --- | --- |
| CO/N=C(\C)c1ccc(Nc2c3ccccc3nc3occc23)cc1 [Compound 8b, (E)-1-[4-(Furo[2,3-b]quinolin-4-ylamino)phenyl]ethanone O-Methyloxime] | 360 | 2580 | 320 | 570 | 1270 | 660 | 1630 | 580 | 410 | 480 | 480 | 167 to 168 | GI50 ([11]; Homo sapiens, A549): 720 nM; GI50 ([12]; Homo sapiens, EKVX): 3780 nM; GI50 ([13]; Homo sapiens, HOP-62, non-small-cell lung cancer cell line): 350 nM; GI50 ([14]; Homo sapiens, HOP-92, non-small-cell lung cancer cell line): 12100 nM; GI50 ([15]; Homo sapiens, NCI-H226): 3880 nM; GI50 ([16]; Homo sapiens, NCI-H23): 570 nM; GI50 ([17]; Homo sapiens, NCI-H322M): 1220 nM; GI50 ([18]; Homo sapiens, NCI-H460, non-small-cell lung cancer cell line): 560 nM; GI50 ([19]; Homo sapiens, NCI-H522): < 10 nM; GI50 [19, 25]: < 10 nM |
| COc1cc(NS(C)(=O)=O)ccc1Nc1c2ccccc2nc2ccccc12 [m-AMSA, 4′-(9-acridinylamino)methanesulfonyl-m-anisidine, reference compound] | 100 | 350 | 1070 | 420 | 580 | 1050 | 870 | 160 | 580 | 440 | 440 | – | – |
| CO/N=C(\C)c1cccc(Nc2c3ccccc3nc3occc23)c1 [Compound 9b, (E)-1-[3-(Furo[2,3-b]quinolin-4-ylamino)phenyl]ethanone O-Methyloxime] | 4230 | 10900 | 6670 | 11500 | 8500 | 11600 | 12600 | 17800 | 8680 | 7560 | 7560 | – | – |
| CC(=O)c1ccc(Nc2c3ccccc3nc3occc23)cc1 [Compound 5, 1-[4-(Furo[2,3-b]quinolin-4-ylamino)phenyl]ethanone] | < 10 | 1750 | 11 | 16 | 18 | 39 | 35 | 21 | 17 | 25 | 25 | 220 to 221 | GI50 ([2]; Homo sapiens, read-out: average GI50 non-small-cell lung cancer): 1750 nM; GI50 ([10]; Homo sapiens, all types of cancer cells tested except non-small-cell lung cancer, read-out: mean GI50 in each type of cancer cells): < 40 nM; GI50 ([11]; Homo sapiens, A549): 570 nM; GI50 ([13]; Homo sapiens, HOP-62): < 10 nM; GI50 [13, 25]: < 10 nM; GI50 ([14]; Homo sapiens, HOP-92): 12400 nM; GI50 ([15]; Homo sapiens, NCI-H226): 310 nM; GI50 ([16]; Homo sapiens, NCI-H23): 37 nM; GI50 ([17]; Homo sapiens, NCI-H322M): 680 nM; GI50 ([18]; Homo sapiens, NCI-H460): 10 nM; GI50 ([19]; Homo sapiens, NCI-H522): < 10 nM; GI50 [19, 25]: < 10 nM |
| Nc1cc(CO)cc(Nc2c3ccccc3nc3occc23)c1 [Compound 4, 3-(Furo[2,3-b]quinolin-4-ylamino)-5-(hydroxymethyl)aniline] | 23000 | 40900 | 25200 | 45900 | 38600 | 47700 | 37700 | 53600 | 23800 | 31100 | – | 236 to 237 | – |
| CC(=O)c1cccc(Nc2c3ccccc3nc3occc23)c1 [Compound 7, 1-[3-(Furo[2,3-b]quinolin-4-ylamino)phenyl]ethanone] | 3220 | 14500 | 5110 | 7630 | 6090 | 11300 | 10600 | 12000 | 5320 | 5270 | 5270 | 158 to 159 | – |
| COc1cccc2c1C(=O)c1c(O)c3c(c(O)c1C2=O)C[C@@](O)(C(C)=O)C[C@@H]3O[C@H]1C[C@H](N)[C@H](O)[C@H](C)O1 [DAM, Daunomycin, reference compound] | – | – | – | – | – | – | – | – | – | – | – | – | GI50 ([1]; Homo sapiens): < 10 nM; GI50 ([2]; Homo sapiens, read-out: GI50 Non-small-cell lung cancer): 43 nM; GI50 ([3]; Homo sapiens): 83 nM; GI50 ([4]; Homo sapiens): 20 nM; GI50 ([5]; Homo sapiens): 47 nM; GI50 ([6]; Homo sapiens): 62 nM; GI50 ([7]; Homo sapiens): 48 nM; GI50 ([8]; Homo sapiens, DU-145, read-out: GI50 Prostate cancer): 32 nM; GI50 ([9]; Homo sapiens): 110 nM; GI50 ([10]; Homo sapiens, read-out: GI50 MG_MID): 44 nM |
| CC(=O)c1ccc(Nc2c3ccccc3nc3occ(Cl)c23)cc1 [Compound 13, 1-[4-(3-Chlorofuro[2,3-b]quinolin-4-ylamino)phenyl]ethanone] | – | – | – | – | – | – | – | – | – | – | – | 245 to 247 | – |
| C=C1CC(C)(c2ccc(Nc3c4ccccc4nc4occc34)cc2)OC1=O (centres unmarked) [Compound 6, 5-[4-(Furo[2,3-b]quinolin-4-ylamino)phenyl]-2,3,4,5-tetrahydro-5-methyl-3-methylidenefuran-2-one] | 900 | 5590 | 1560 | 5300 | 1710 | 1920 | 4760 | 1320 | 3270 | 1770 | – | – | GI50 ([10]; Homo sapiens, mean over all cell lines, read-out: mean GI50): 1770 nM |
| C/C(=N\O)c1ccc(Nc2c3ccccc3nc3occc23)cc1 [Compound 8a, (E)-1-[4-(Furo[2.3-b]quinolin-4-ylamino)phenyl]ethanone oxime] | – | – | – | – | – | – | – | – | – | – | 350 | – | GI50 ([1]; subpanel value, concentration causing 50% cell growth inhibition): 140 nM; GI50 ([2]; subpanel value, read-out: GI50 Non-small-cell lung cancer): 4440 nM; GI50 ([3]; subpanel value): 170 nM; GI50 ([4]; subpanel value): 350 nM; GI50 ([5]; subpanel value): 950 nM; GI50 ([6]; subpanel value): 530 nM; GI50 ([7]; subpanel value): 2680 nM; GI50 ([8]; subpanel value, read-out: GI50 Prostate cancer): 530 nM; GI50 ([9]; subpanel value): 420 nM; GI50 ([10]; mean values over all cell lines tested, read-out: GI50 MG_MID): 350 nM; GI50 [11]: 450 nM; GI50 [12]: 4030 nM; GI50 [13, 25]: 180 nM; GI50 [14, 25]: 10900 nM; GI50 [15]: 11500 nM; GI50 [16]: 380 nM; GI50 [17]: 12200 nM; GI50 [18, 25]: 210 nM; GI50 [19]: 74 nM; GI50 [19, 25]: 74 nM |
| C/C(=N\O)c1cccc(Nc2c3ccccc3nc3occc23)c1 [Compound 9a, (E)-1-[3-(Furo[2,3-b]quinolin-4-ylamino)phenyl]ethanone oxime] | 3640 | 8010 | 5350 | 10500 | 4810 | 13600 | 9900 | 16200 | 3620 | 5600 | 5600 | 248 to 249 | – |
